Drawing on patent US20210253575A1, “PYRROLIDINE AMINE COMPOUNDS FOR THE TREATMENT OF AUTOIMMUNE DISEASE” (Hoffmann-La Roche Inc., priority 2018, published 2021), this text covers IC50 for 5 compounds.

For orientation: IC50 means the midpoint of a concentration-inhibition curve. Read a low IC50 as greater potency.

The experiment concerns the target T1, human TLR9 (Homo sapiens, UniProt Q9NR96).
T1 sequence (Q9NR96 26-1032): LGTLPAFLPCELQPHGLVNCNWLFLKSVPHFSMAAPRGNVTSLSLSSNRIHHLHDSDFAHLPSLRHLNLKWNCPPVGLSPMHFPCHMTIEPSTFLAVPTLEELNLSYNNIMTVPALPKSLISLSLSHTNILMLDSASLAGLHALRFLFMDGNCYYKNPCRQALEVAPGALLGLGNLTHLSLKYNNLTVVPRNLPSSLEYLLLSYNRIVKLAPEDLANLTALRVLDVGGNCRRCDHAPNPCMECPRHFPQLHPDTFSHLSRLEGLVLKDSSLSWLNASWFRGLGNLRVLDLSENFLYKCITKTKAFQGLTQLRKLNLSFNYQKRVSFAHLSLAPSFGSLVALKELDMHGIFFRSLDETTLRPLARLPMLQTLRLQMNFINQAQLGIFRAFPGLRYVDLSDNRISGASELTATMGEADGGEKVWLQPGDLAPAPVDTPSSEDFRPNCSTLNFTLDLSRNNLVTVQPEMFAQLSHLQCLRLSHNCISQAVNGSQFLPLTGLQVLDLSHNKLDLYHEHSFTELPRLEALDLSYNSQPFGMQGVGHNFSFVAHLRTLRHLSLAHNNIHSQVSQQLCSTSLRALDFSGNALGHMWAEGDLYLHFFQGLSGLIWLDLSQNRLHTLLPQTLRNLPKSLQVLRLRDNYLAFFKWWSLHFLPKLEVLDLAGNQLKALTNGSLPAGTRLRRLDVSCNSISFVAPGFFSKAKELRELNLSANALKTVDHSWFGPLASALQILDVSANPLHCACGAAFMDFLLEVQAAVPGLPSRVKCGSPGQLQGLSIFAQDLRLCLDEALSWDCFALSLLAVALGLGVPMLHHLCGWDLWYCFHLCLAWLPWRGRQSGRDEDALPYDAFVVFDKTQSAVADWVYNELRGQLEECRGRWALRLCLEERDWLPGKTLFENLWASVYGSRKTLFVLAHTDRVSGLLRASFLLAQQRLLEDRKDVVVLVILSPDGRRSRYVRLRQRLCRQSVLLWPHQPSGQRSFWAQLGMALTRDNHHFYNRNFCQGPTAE
Put plainly: HEK293-Blue-hTLR-9 cells assay (SEAP reporter, ODN2006 stimulation). The experiment is classed as cell-based. Conditions: HEK293-Blue-hTLR9 cells, ODN2006 ligand, 20 hrs incubation. The gist of the method: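 HEK293-Blue-hTLR9 cells with NF-κB/AP-1-driven SEAP reporter, stimulated with ODN2006 in presence of serially diluted compounds (1% DMSO) for 20 h at 37 °C. Supernatant SEAP measured with QUANTI-Blue after 2 h at 37 °C, absorbance 620–655 nm.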
`N#Cc1ccc(N2CC(CN3CCNCC3)C3(CC3)C2)c2nccnc12` (centres unmarked) [Example 3, 8-[7-(piperazin-1-ylmethyl)-5-azaspiro[2.4]heptan-5-yl]quinoxaline-5-carbonitrile] yielded an IC50 of 1870 nM.

Take `CN1CCC2(CCN(C[C@H]3CN(c4ccc(C#N)c5nccnc45)C[C@@H]3C(F)(F)F)C2)C1` (stereo partly drawn) [Example 84, 8-[(3S,4R)-3-[(7-methyl-2,7-diazaspiro[4.4]nonan-2-yl)methyl]-4-(trifluoromethyl)pyrrolidin-1-yl]quinoxaline-5-carbonitrile]: the IC50 came out at 409 nM.

On to `N#Cc1ccc(N2CC(CN3CC4CCC(C3)C4N)C3(CC3)C2)c2nccnc12` (centres unmarked) [Example 4, 8-[7-[(8-Amino-3-azabicyclo[3.2.1]octan-3-yl)methyl]-5-azaspiro[2.4]heptan-5-yl]quinoxaline-5-carbonitrile], for which it took 244 nM to reach half-maximal inhibition (IC50).

`CC1(CN)CCN(C[C@H]2CN(c3ccc(C#N)c4nccnc34)C[C@@H]2C(F)(F)F)C1` (stereo partly drawn) [Example 85, 8-[(3S,4R)-3-[[3-(aminomethyl)-3-methyl-pyrrolidin-1-yl]methyl]-4-(trifluoromethyl)pyrrolidin-1-yl]quinoxaline-5-carbonitrile] gave an IC50 of 314 nM.

In the case of `CN(C)[C@@H]1CCN(C[C@H]2CN(c3ccc(C#N)c4nccnc34)C[C@@H]2C(F)(F)F)C1` [Example 83, 8-[(3S,4R)-3-[[(3R)-3-(dimethylamino)pyrrolidin-1-yl]methyl]-4-(trifluoromethyl)pyrrolidin-1-yl]quinoxaline-5-carbonitrile], the IC50 was determined as 2020 nM.
